The text below walks through data of paper PMC11927431 (eGastroenterology, 2025).

Read-outs that look alike come from different tables or passages of the source.

In one series the target is CB1R (Mus musculus, UniProt P47746). Description: Radioligand saturation binding assay on brain membrane homogenates. The following applies: read-out: Kd ± S.E.M., 30°C, 60 min.
The conditions of series [1]: 3 mg/kg; cited from earlier work.

Sequence of CB1R (P47746 whole entry): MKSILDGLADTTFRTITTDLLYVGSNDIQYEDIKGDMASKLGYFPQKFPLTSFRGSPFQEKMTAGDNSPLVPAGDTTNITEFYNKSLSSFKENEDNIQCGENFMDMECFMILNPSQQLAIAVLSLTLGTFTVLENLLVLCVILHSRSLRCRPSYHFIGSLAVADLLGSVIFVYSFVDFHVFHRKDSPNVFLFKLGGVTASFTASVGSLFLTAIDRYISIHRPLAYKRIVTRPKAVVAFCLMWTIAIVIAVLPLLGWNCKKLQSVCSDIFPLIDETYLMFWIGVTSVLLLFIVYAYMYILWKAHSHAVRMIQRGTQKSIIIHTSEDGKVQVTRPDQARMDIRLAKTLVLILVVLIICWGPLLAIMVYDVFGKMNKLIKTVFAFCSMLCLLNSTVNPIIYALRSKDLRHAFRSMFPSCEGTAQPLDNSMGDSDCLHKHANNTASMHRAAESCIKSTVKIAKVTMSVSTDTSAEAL

On to `CCCCCCC(C)(C)c1ccc([C@@H]2C[C@H](O)CC[C@H]2CCCO)c(O)c1` [[^3H]-CP55.940], for which the results for the Kd at CB1R (CB1^IEC-/- mouse brain membrane homogenate) and at CB1R (CB1^f/f mouse brain membrane homogenate) were 1.7 nM and 1.68 nM, respectively.

As to `Cc1c(C(=O)NN2CCCCC2)nn(-c2ccc(Cl)cc2Cl)c1-c1ccc(Cl)cc1` [rimonabant], the Anxiogenic behaviour entry in series [1] was “induced significant anxiety”.
